Among the data in BindingDB's records for doi:10.1016/j.bmcl.2011.01.079 (The Scripps Research Institute, 2011) are IC50 values, retold here.

pIC50: −log10 of the molar value.

The target of the assay is Transcription factor Jun (Homo sapiens, UniProt P05412). The assay can be described thus: Inhibition of c-Jun.
Sequence of Transcription factor Jun (P05412 whole entry): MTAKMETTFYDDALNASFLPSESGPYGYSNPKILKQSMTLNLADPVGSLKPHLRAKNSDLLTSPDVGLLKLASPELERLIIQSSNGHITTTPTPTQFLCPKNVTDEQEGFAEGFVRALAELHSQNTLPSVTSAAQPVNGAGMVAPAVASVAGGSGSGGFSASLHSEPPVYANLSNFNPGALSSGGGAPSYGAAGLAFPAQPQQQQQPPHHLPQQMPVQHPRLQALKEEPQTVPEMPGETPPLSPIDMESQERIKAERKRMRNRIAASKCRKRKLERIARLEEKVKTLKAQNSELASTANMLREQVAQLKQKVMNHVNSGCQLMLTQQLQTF
Turning to `Cc1ccc(-c2cccc3cnc(NC4CCC(O)CC4)nc23)cn1` (stereo unspecified) [4-(8-(6-methylpyridin-3-yl)quinazolin-2-ylamino)cyclohexanol], the pIC50 (commonly the negative decadic logarithm of the IC50, by convention in mol/L) was 6.03.
In turn, `Cn1cc(-c2ccc3cnc(Nc4ccc(-n5cnc(N6CCOCC6)n5)cc4)nc3c2-c2cnn(C)c2)cn1` [7,8-bis(1-methyl-1H-pyrazol-4-yl)-N-(4-(3-morpholino-1H-1,2,4-triazol-1-yl)phenyl)quinazolin-2-amine] gave a pIC50 of 7.40.
For `Cn1cc(-c2ccc3cnc(Nc4ccc(-n5cnc(-c6ccccn6)n5)cc4)nc3c2)cn1` [7-(1-methyl-1H-pyrazol-4-yl)-N-(4-(3-(pyridin-2-yl)-1H-1,2,4-triazol-1-yl)phenyl)quinazolin-2-amine], the negative logarithm of the IC50 (pIC50) was 6.54.
With `Cn1cc(-c2ccc3cnc(Nc4ccc(-n5cnc(N6CCOCC6)n5)cc4)nc3c2-c2ccccc2)cn1` [7-(1-methyl-1H-pyrazol-4-yl)-N-(4-(3-morpholino-1H-1,2,4-triazol-1-yl)phenyl)-8-phenylquinazolin-2-amine] the figure was 7.40; with `Cn1cc(-c2ccc3cnc(Nc4ccc(-n5cnc(N6CCOCC6)n5)cc4)nc3c2)cn1` [7-(1-methyl-1H-pyrazol-4-yl)-N-(4-(3-morpholino-1H-1,2,4-triazol-1-yl)phenyl)quinazolin-2-amine], 6.51; with `Cn1cc(-c2cccc3cnc(Nc4ccc(-n5cnc(N6CCOCC6)n5)cc4)nc23)cn1` [8-(1-methyl-1H-pyrazol-4-yl)-N-(4-(3-morpholino-1H-1,2,4-triazol-1-yl)phenyl)quinazolin-2-amine], 6.48.
For `COc1ccc(-c2cccc3cnc(Nc4ccc(-n5cnc(-c6ccccn6)n5)cc4)nc23)cc1F` [8-(3-fluoro-4-methoxyphenyl)-N-(4-(3-(pyridin-2-yl)-1H-1,2,4-triazol-1-yl)phenyl)quinazolin-2-amine] the value was 5.29.
For `COc1ccc(-c2cccc3cnc(Nc4ccc(-n5cnc(C)n5)cc4)nc23)cc1F` [8-(3-fluoro-4-methoxyphenyl)-N-(4-(3-methyl-1H-1,2,4-triazol-1-yl)phenyl)quinazolin-2-amine] the value was 6.30.
The molecule `COc1ccc(-c2cccc3cnc(Nc4ccc(-n5cnc(N6CCOCC6)n5)cc4)nc23)cc1F` [8-(3-fluoro-4-methoxyphenyl)-N-(4-(3-morpholino-1H-1,2,4-triazol-1-yl)phenyl)quinazolin-2-amine] gave a pIC50 of 6.60.
With `CC(C)n1cc(-c2ccc3cnc(Nc4ccc(-n5cnc(N6CCOCC6)n5)cc4)nc3c2Cl)cn1` [8-chloro-7-(1-isopropyl-1H-pyrazol-4-yl)-N-(4-(3-morpholino-1H-1,2,4-triazol-1-yl)phenyl)quinazolin-2-amine] the figure was 6.21.
With `Cn1cc(-c2ccc3cnc(Nc4ccc(-n5cnc(N6CCOCC6)n5)cc4)nc3c2Cl)cn1` [8-chloro-7-(1-methyl-1H-pyrazol-4-yl)-N-(4-(3-morpholino-1H-1,2,4-triazol-1-yl)phenyl)quinazolin-2-amine] the figure was 7.00; with `Cn1cc(-c2ccc3cnc(Nc4ccc(-n5cnc(N6CCOCC6)n5)cc4)nc3c2C2CC2)cn1` [8-cyclopropyl-7-(1-methyl-1H-pyrazol-4-yl)-N-(4-(3-morpholino-1H-1,2,4-triazol-1-yl)phenyl)quinazolin-2-amine], 6.89.
As for `COc1c(-c2cnn(C)c2)ccc2cnc(Nc3ccc(-n4cnc(N5CCOCC5)n4)cc3)nc12` [8-methoxy-7-(1-methyl-1H-pyrazol-4-yl)-N-(4-(3-morpholino-1H-1,2,4-triazol-1-yl)phenyl)quinazolin-2-amine], the pIC50 is 7.30.
As to `Cc1c(-c2cnn(C)c2)ccc2cnc(Nc3ccc(-n4cnc(N5CCOCC5)n4)cc3)nc12` [8-methyl-7-(1-methyl-1H-pyrazol-4-yl)-N-(4-(3-morpholino-1H-1,2,4-triazol-1-yl)phenyl)quinazolin-2-amine], the pIC50 was 6.80.
With `Cc1ccc(-c2cccc3cnc(N[C@H]4CC[C@@H](C(=O)N5CCCC5)CC4)nc23)cn1` [((cis)-4-(8-(6-methylpyridin-3-yl)quinazolin-2-ylamino)cyclohexyl)(pyrrolidin-1-yl)methanone] the figure was 5.52.
With `Cc1ccc(-c2ncn(-c3ccc(Nc4ncc5ccc(-c6cn[nH]c6)cc5n4)cc3)n2)cn1` [N-(4-(3-(6-methylpyridin-3-yl)-1H-1,2,4-triazol-1-yl)phenyl)-7-(1H-pyrazol-4-yl)quinazolin-2-amine] the figure was 7.40; with `Cc1ncn(-c2ccc(Nc3ncc4cccc(-c5nccs5)c4n3)cc2)n1` [N-(4-(3-methyl-1H-1,2,4-triazol-1-yl)phenyl)-8-(thiazol-2-yl)quinazolin-2-amine], 6.70; with `c1cc(-n2cnc(N3CCOCC3)n2)ccc1Nc1ncc2ccc(-c3cn[nH]c3)cc2n1` [N-(4-(3-morpholino-1H-1,2,4-triazol-1-yl)phenyl)-7-(1H-pyrazol-4-yl)quinazolin-2-amine], 6.92.
For `c1cc(-c2nccs2)c2nc(Nc3ccc(-n4cnc(N5CCOCC5)n4)cc3)ncc2c1` [N-(4-(3-morpholino-1H-1,2,4-triazol-1-yl)phenyl)-8-(thiazol-2-yl)quinazolin-2-amine] the value was 5.52; for `c1ccc(-c2cccc3cnc(Nc4ccc(-n5cnc(N6CCOCC6)n5)cc4)nc23)cc1` [N-(4-(3-morpholino-1H-1,2,4-triazol-1-yl)phenyl)-8-phenylquinazolin-2-amine], 5.85; for `Cc1ccc(-c2cccc3cnc(Nc4ccc5c(c4)OCO5)nc23)cn1` [N-(benzo[d][1,3]dioxol-5-yl)-8-(6-methylpyridin-3-yl)quinazolin-2-amine], 6.20.
